Bounds are passed on as bounds.

From article PMC12595434, “Development of retinoid nuclear receptor pathway antagonists through targeting aldehyde dehydrogenase 1A3” (iScience, 2025) come the findings set out here.

In data set [1] the target is DAT (Homo sapiens, UniProt Q01959). The experiment in a line: Off-target profiling panel. The format is binding. Particulars: read-out: Inhibition by MBE1 at 10 μM (%).
Data set [2] addresses D2 (Homo sapiens, UniProt P14416). The data set can be described thus: Off-target profiling panel. The data set is classed as binding. Particulars: read-out: Inhibition by MBE1 at 10 μM (%).
For data set [3], the target named is 5HT2B (Homo sapiens, UniProt P41595). The experiment in a line: Off-target profiling panel. Particulars: read-out: Inhibition by MBE1 at 10 μM (%). The data set is classed as binding.
Data set [4] addresses T1, C19orf66 (Homo sapiens, UniProt Q9NUL5).
T1 construct: Treated A375 cells were harvested from 10 × 15 cm plates; endogenous in cells; host or cells: A375 melanoma cells
The data set can be described thus: Thermal proteome profiling (TPP) in A375 cells. Particulars: C19orf66, 1 uM. The data set is classed as cell-based.

Data set [5] concerns the target H1 (Homo sapiens, UniProt P35367). The experiment in a line: Off-target profiling panel. The format is binding. Particulars: read-out: Inhibition by MBE1 at 10 μM (%).
Data set [6] concerns the target T2, PVRL1 (Homo sapiens, UniProt Q15223).
T2 construct: Treated A375 cells were harvested from 10 × 15 cm plates; endogenous in cells; host or cells: A375 melanoma cells
The experiment in a line: Thermal proteome profiling (TPP) in A375 cells. The data set is classed as cell-based. Particulars: PVRL1, 1 uM.

Data set [7] concerns the target T3, TPX2 (Homo sapiens, UniProt Q9ULW0).
T3 construct: Treated A375 cells were harvested from 10 × 15 cm plates; endogenous in cells; host or cells: A375 melanoma cells
The data set can be described thus: Thermal proteome profiling (TPP) in A375 cells. The format is cell-based. Particulars: TPX2, 100 nM.

Data set [8] addresses V1A (Homo sapiens, UniProt P37288). The data set can be described thus: Off-target profiling panel. The data set is classed as binding. Particulars: read-out: Inhibition by MBE1 at 10 μM (%).
In data set [9] the target is AR (Homo sapiens, UniProt P10275). The experiment in a line: Off-target profiling panel. The format is binding. Particulars: read-out: Inhibition by MBE1 at 10 μM (%).
Data set [10] has as its target COX2 (Homo sapiens, UniProt P35354). The experiment in a line: Off-target profiling panel. The data set is classed as biochemical. Particulars: read-out: Inhibition by MBE1 at 10 μM (%).
Data set [11] can be described thus: Plasma stability (human). The data set is classed as in vitro ADME. Particulars: read-out: Plasma stability T1/2 (human).
For data set [12], the target named is T4, RHPN2 (Homo sapiens, UniProt Q8IUC4).
T4 construct: Treated A375 cells were harvested from 10 × 15 cm plates; endogenous in cells; host or cells: A375 melanoma cells
The data set can be described thus: Thermal proteome profiling (TPP) in A375 cells. The format is cell-based. Particulars: RHPN2, 100 nM.

The target in data set [13] is op-mu (Homo sapiens, UniProt P35372). The experiment in a line: Off-target profiling panel. The data set is classed as binding. Particulars: read-out: Inhibition by MBE1 at 10 μM (%).
The target of data set [14] is hERG (Homo sapiens, UniProt Q12809). The experiment in a line: Off-target profiling panel. The data set is classed as binding. Particulars: read-out: Inhibition by MBE1 at 10 μM (%).
Data set [15] deals with GR (Homo sapiens, UniProt P04150). The data set can be described thus: Off-target profiling panel. The data set is classed as binding. Particulars: read-out: Inhibition by MBE1 at 10 μM (%).
Data set [16] deals with M1 (Homo sapiens, UniProt P11229). The experiment in a line: biochemical. The data set is classed as binding. Particulars: read-out: Inhibition by MBE1 at 10 μM (%).
In data set [17] the test system is panel of 23 human cancer cell lines. The experiment in a line: Aldefluor assay, panel of 23 human cancer cell lines. The data set is classed as cell-based. Particulars: 100 nM; most solid cancer types except liver cancer. How it is done: To determine the breadth of ALDH1A3 activity across human cancers and assess the target engagement of these discovered compounds across tumor models, we profiled a panel of 23 human cancer cell lines with the Aldefluor assay. […] Next, we assessed whether ALDH1A3 affects cell growth across this broad panel of cancer types by testing proliferation for each cell line with and without MBE1.5.
In addition, cells were suspended at a concentration of 100,000 cells per mL. Finally, DMSO was added to at 1% final in all cells to improve kinetics of the assay. For compound titrations, concentrated compound stock was added first to tubes and a uniform Aldefluor buffer containing the cell suspension was added to dilute to final volumes. Cells were analyzed by a BD LSRII for flow cytometry and were sorted using a FACSAria Fusion cell sorter (BD Biosciences) equipped with a 70 micron nozzle. Sample and sort collection tubes were kept at 4°C. […] DAPI was used as a live-dead indicator.

Data set [18] concerns the target T5, ALDH1L1 (Homo sapiens, UniProt O75891).
T5 construct: made in house; host or cells: BL21-DE3 E. coli
The data set can be described thus: Recombinant enzyme activity assay. The data set is classed as biochemical. Particulars: selectivity profiling.

The target in data set [19] is T6, ALDH3A1 (Homo sapiens, UniProt P30838).
T6 construct: made in house; host or cells: BL21-DE3 E. coli
The experiment in a line: Recombinant enzyme activity assay. The format is biochemical. Particulars: selectivity profiling.

The target in data set [20] is T7, ALDH1L2 (Homo sapiens, UniProt Q3SY69).
T7 construct: made in house; host or cells: BL21-DE3 E. coli
The experiment in a line: Recombinant enzyme activity assay. The format is biochemical. Particulars: selectivity profiling.

The target in data set [21] is T8, purified human ALDH1A3 (Homo sapiens, UniProt P47895).
T8 construct: made in house; host or cells: BL21-DE3 E. coli
The data set can be described thus: Nanoscale differential scanning fluorimetry (DSF). The format is binding. Particulars: 10 and 100 μM.

T4 sequence (Q8IUC4 whole entry): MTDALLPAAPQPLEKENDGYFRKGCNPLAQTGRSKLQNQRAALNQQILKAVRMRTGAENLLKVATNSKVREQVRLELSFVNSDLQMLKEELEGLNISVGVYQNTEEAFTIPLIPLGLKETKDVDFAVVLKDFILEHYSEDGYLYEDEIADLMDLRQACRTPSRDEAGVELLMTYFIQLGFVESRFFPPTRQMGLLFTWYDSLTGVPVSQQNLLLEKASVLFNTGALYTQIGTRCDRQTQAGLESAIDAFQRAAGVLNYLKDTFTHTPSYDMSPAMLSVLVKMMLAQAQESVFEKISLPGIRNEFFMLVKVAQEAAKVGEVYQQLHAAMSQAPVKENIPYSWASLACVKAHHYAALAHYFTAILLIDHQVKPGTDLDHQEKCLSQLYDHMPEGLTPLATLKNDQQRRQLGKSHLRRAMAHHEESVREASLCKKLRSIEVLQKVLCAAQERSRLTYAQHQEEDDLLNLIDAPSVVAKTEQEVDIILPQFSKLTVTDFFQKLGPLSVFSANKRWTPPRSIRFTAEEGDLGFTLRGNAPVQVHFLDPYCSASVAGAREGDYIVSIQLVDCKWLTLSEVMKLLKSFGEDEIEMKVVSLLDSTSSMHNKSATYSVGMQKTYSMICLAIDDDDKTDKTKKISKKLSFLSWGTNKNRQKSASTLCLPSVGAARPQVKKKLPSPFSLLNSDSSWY
T2 sequence (Q15223 31-517): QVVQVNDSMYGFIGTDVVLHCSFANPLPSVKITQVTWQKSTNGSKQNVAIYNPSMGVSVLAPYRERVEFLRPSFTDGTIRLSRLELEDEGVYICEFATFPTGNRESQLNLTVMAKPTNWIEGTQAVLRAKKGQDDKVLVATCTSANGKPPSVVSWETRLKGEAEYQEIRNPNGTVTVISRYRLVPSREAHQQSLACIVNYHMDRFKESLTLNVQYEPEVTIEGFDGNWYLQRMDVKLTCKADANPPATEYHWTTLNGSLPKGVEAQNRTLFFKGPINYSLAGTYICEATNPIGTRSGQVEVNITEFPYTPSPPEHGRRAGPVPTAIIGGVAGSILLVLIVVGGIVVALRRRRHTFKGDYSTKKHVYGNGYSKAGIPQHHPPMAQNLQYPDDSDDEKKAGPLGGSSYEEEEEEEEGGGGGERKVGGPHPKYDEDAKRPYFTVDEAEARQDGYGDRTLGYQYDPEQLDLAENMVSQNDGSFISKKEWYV
T3 sequence (Q9ULW0 whole entry): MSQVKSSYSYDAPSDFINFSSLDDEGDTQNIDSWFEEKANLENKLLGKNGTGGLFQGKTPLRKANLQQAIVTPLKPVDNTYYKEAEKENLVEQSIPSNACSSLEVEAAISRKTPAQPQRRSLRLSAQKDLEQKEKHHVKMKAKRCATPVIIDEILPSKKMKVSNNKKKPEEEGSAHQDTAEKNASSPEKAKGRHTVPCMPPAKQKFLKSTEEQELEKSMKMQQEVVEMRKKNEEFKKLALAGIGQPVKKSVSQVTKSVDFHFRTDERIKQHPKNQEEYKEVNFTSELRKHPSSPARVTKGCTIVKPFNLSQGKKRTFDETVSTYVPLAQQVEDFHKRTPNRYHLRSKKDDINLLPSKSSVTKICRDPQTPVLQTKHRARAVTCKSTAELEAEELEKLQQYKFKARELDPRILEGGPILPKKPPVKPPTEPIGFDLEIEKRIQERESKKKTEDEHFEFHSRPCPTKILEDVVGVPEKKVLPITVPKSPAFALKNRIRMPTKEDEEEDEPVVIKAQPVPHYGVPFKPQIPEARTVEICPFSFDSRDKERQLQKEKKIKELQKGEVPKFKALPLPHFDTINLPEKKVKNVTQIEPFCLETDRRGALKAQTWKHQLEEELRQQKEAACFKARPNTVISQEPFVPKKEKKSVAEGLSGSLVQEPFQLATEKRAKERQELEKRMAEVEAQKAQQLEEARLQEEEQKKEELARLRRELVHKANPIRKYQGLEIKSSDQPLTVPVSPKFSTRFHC
op-mu, sequence (P35372 whole entry): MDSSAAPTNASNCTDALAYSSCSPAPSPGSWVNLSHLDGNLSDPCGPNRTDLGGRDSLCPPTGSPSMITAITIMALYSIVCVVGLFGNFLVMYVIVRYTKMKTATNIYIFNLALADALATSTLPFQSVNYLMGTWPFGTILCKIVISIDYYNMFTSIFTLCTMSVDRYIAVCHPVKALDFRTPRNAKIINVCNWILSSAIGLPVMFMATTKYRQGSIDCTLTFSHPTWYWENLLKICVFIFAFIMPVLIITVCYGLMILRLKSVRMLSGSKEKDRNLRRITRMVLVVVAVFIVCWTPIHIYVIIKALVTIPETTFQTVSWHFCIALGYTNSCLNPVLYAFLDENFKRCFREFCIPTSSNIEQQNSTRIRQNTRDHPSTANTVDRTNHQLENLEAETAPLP
H1, sequence (P35367 whole entry): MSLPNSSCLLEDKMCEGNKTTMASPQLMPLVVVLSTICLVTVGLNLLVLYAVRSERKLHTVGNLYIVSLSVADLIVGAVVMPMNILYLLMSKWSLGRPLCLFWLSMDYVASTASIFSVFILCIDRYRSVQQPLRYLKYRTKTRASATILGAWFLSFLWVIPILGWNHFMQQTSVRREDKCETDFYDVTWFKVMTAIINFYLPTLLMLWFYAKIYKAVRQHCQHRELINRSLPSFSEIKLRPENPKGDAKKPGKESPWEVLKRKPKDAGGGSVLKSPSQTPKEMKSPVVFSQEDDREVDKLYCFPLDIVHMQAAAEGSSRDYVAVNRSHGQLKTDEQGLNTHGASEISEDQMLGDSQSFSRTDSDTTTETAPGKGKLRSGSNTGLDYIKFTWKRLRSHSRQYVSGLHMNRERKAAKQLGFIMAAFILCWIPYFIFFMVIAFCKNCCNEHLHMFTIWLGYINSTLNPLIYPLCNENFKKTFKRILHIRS
GR, sequence (P04150 whole entry): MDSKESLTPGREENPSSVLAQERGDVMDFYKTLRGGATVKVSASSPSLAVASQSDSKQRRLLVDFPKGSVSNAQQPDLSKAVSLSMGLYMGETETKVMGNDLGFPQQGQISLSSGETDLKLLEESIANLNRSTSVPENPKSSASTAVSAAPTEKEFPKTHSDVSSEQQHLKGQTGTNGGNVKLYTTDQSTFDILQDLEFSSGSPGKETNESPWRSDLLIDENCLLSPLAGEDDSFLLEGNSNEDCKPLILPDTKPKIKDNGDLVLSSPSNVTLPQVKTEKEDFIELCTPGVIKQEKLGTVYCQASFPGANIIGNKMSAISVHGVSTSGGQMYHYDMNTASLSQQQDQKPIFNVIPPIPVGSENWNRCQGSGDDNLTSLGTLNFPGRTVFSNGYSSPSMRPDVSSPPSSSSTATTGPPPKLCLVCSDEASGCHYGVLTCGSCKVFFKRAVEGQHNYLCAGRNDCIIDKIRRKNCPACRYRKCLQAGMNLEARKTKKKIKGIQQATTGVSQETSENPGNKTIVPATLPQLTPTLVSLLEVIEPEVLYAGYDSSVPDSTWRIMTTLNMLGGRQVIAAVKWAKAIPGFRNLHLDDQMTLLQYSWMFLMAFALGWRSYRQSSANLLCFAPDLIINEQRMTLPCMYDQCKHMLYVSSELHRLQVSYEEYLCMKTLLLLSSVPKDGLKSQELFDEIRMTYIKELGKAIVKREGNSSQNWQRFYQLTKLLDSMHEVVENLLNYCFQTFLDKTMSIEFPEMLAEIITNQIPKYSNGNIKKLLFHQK
T8 sequence (P47895 whole entry): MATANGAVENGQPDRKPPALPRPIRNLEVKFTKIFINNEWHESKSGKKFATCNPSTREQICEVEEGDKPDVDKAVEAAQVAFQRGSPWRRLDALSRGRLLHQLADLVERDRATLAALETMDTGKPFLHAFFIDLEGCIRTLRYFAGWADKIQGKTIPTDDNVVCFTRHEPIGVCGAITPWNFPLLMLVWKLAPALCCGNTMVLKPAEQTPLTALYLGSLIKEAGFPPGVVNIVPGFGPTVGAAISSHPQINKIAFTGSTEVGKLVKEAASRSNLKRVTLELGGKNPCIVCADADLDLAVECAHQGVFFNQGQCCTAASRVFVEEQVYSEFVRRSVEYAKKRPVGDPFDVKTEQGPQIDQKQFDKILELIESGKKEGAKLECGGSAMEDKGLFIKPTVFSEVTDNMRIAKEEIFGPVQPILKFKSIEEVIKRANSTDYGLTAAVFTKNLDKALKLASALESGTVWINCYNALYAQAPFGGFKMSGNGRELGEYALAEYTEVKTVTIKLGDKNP
V1A, sequence (P37288 whole entry): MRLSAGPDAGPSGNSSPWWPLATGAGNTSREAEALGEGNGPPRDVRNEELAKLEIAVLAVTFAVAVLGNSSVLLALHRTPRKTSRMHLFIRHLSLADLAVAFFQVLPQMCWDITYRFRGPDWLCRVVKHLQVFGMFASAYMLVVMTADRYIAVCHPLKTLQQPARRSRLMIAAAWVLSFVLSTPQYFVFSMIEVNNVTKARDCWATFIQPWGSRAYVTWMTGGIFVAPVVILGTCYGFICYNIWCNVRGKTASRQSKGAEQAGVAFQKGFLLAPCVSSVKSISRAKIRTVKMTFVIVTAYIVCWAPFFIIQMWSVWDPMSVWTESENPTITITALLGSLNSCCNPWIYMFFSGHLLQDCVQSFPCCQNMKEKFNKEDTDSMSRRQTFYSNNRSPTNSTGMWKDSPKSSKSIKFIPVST
D2, sequence (P14416 whole entry): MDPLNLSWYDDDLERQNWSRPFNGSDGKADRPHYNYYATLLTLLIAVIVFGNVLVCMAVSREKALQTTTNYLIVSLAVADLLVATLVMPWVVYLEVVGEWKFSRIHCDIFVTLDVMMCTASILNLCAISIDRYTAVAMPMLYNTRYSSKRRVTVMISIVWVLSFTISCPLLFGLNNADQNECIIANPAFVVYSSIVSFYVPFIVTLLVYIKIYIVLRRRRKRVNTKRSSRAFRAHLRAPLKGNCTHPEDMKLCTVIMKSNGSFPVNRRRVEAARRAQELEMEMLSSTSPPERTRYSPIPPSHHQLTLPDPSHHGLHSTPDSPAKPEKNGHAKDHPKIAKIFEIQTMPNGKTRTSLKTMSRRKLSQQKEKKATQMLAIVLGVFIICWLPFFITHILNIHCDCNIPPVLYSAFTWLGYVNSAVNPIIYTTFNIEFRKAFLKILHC

As to `CCc1cnccc1C(=O)Nc1cc2c(cc1F)NC(=O)CC2` [MBE1, 3-ethyl-N-(7-fluoro-2-oxo-3,4-dihydro-1H-quinolin-6-yl)pyridine-4-carboxamide], the inhibition – broadly, the drop in the measured response relative to a control, in per cent – at 10 µM in [1] was -13.1%; in data set [2], 1.45%; in data set [3], -6.81%; in data set [5] it was -11.7%; in [8] it was 5.88%; in data set [9], -10.1%. In addition, the inhibition at 10 µM in [10] is -1.05%; in [13], 3.98%; in [14], -28.1%; in data set [15], -13.5%; in [16], -7.68%. The entries for the “1uM MBE1 Tm” value in data set [4] and in data set [6] were 53.8379 and 64, respectively. The ΔTm at 1 µM in [6] (A-375, read-out: DMSO-1uM MBE1 TM shift) was -15.1 °C. Besides, the “100nM MBE1 Tm” value in data set [7] came out at 64; in data set [12], 58.0062. For the same compound, the entries for the “DMSO-100nM MBE1 TM” value in data set [7] and in data set [12] were -7.655 and -9.514, respectively. For the same compound, the half-life in data set [11] is > 4.82 h.

With `CCc1ccccc1C(=O)Nc1cc2c(cc1F)NC(=O)CC2` [MBE1.5, 2-ethyl-N-(7-fluoro-2-oxo-3,4-dihydro-1H-quinolin-6-yl)benzamide], the “inhibition of Aldefluor activity across cancer cell line panel (in words)” value in data set [17] is reported as “potently inhibited Aldefluor activity”. Moreover, the “inhibitory activity against ALDH1L1 (in words)” value in data set [18] is “no inhibition”. In data set [19], the “inhibitory activity against ALDH3A1 (in words)” value is “no inhibition”. Besides, the “inhibitory activity against ALDH1L2 (in words)” value in [20] is listed as “no inhibition”. Also, the “thermal stabilization of purified ALDH1A3” value in [21] was > 8.5 °C.
